According to patent publication US20030229053A1, “Compounds and methods for the treatment or prevention of flavivirus infections” (Shire BioChem Inc., priority 2001, published 2003):

Biological target: HCV NS5B RNA-dependent RNA polymerase (Hepatitis C virus genotype 1b, UniProt P26663)
Test: In vitro RNA-dependent RNA polymerase assay (Assay 1), polyA/oligo dT, TCA precipitation
Type: biochemical
Details: not given
Description: Purification of Recombinant NS5B Using Fast Protein Liquid Chromatography (FPLC):
Soluble NS5B protein in the S3 fraction was diluted to lower the NaCl concentration to 300 mM, then it incubated batchwise with DEAE sepharose beads (Amersham-Pharmacia) for 2 hrs at 4° C., as described by Behrens et al. (1996). Unbound material was cleared by centrifugation for 15 min at 4° C., at 25,000 rpm using a SW41 rotor (Beckman). The supernatant was further diluted to lower the NaCl concentration to 200 mM and subsequently loaded, with a flow rate of 1 ml/min, on a 5 ml HiTrap® heparin column (Amersham-Pharmacia) connected to an FPLC® system (Amersham-Pharmacia). Bound proteins were eluted in 1 ml fractions, using a continuous NaCl gradient of 0.2 to 1 M, over a 25 ml volume. NS5B-containing fractions were identified by sodium dodecyl sulfate polyacrylamide gel electrophoresis (SDS-PAGE), followed by western blotting using the anti-NS5B antiserum at a dilution of 1:2000. Positive fractions were pooled and the elution buffer was exchanged against a 50 mM NaPO4 pH 7.0, 20% glycerol, 0.5% triton X-100 and 10 mM DTT, using a PD-10 column (Amersham-Pharmacia). The sample was then loaded onto a 1 ml HiTrap® SP column (Amersham-Pharmacia), with a flow rate of 0.1 ml/min. Bound proteins were eluted using a continuous 0 to 1 M NaCl gradient over a 15 ml volume. Eluted fractions were analyzed by SDS-PAGE and western blotting. Alternatively, proteins were visualized, following SDS-PAGE, by silver staining using the Silver Stain Plus kit (BioRad) as described by the manufacturer. […]
In vitro RNA-dependent RNA Polymerase Assays Used to Evaluate Biaryl Analogues (Assay 1):
RdRp assays were conducted using the homopolymeric template/primer polyA/oligo dT. All RdRp reactions were performed in a total volume of 50 μl, and in a basic buffer consisting of 20 mM Tris-HCl pH 7.5, 1 mM DTT, 50 mM NaCl, 5 mM MgCl2, 0.5 μCi […] (3000 Ci/mmol), 15 μM cold UTP and 20 U RNasin (Promega). Standard HCV RdRp reactions contained 200 ng of purified NS5B protein. PolyA RNAs (Amersham-Pharmacia) was resuspended at 400 ng/μl. The primer oligodT15 (Canadian life technologies) was diluted to a concentration of […] (7.6 ng/μl). Templates and primers were mixed volume to volume, denatured at 95° C. for 5 min and annealed at 37° C. for 10 min. Following a two hour incubation at 22° C., reactions were stopped by the addition of 100 μg of sonicated salmon sperm DNA (Life Technologies) and 1 ml of 10% trichloroacetic acid-0.5% tetrasodium pyrophosphate (TCA-PPi). Nucleic acids were precipitated at 4° C. for 30 min after which samples were filtered on GF/C glass microfiber filters (Millipore). Membranes were subsequently washed with 25 ml of a 1% TCA-0.1% PPi solution, then air dried. Incorporated radioactivity was quantified using a liquid scintillation counter (1450-Microbeta, Wallac). Results are shown in Table 1, in the column indicated as Assay 1.

Chain of HCV NS5B RNA-dependent RNA polymerase (P26663 2420-3010 limits assumed): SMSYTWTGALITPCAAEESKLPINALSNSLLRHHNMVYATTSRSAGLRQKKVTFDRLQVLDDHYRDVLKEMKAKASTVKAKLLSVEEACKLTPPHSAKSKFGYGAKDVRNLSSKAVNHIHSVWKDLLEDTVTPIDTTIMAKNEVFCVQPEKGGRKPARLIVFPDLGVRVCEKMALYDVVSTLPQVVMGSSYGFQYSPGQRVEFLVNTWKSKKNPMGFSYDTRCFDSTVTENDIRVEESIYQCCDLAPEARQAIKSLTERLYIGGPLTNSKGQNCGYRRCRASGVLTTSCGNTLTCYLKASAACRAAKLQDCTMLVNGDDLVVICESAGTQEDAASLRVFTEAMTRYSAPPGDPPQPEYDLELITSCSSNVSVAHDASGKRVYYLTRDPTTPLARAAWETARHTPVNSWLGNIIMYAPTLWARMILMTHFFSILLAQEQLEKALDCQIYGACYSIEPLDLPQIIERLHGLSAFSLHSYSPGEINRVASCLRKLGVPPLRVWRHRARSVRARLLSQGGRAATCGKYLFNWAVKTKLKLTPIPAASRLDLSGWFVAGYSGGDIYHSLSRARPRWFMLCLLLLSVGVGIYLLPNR

Q: How did the IC50 turn out when O=C(O)[C@H](Cc1ccccc1)N(Cc1cccc(Br)c1)C(=O)c1ccc(Cl)cc1Cl [compound #9, (2s)-2-[(3-Bromo-benzyl)-(2,4-dichloro-benzoyl)-amino]-3-phenyl-propionic acid] was run?
A: < 5 µM

Q: O=C(O)[C@H](Cc1ccccc1)N(Cc1cccc(Br)c1)C(=O)c1ccc(Cl)cc1 [compound #15, (2s)-2-[(3-Bromo-benzyl)-(4-chloro-benzoyl)-amino]-3-phenyl-propionic acid] was tested. Which IC50 did it give?
A: 5 to 20 µM

Same assay, conditions: polyA/oligo dT template/primer, 200 ng NS5B, 2 h at 22° C.; read-out: RNA pol Assay 1 IC50 (μm)

Q: With O=C(O)C(Cc1ccccc1)N(Cc1ccc(-c2cc3ccccc3o2)cc1)C(=O)c1ccc(Cl)cc1Cl (stereo in doubt) [compound #4, (2s)-2-[(4-Benzofuran-2-yl-benzyl)-(2,4-dichloro-benzoyl)-amino]-3-phenyl-propionic acid] as the compound, how does the IC50 read?
A: < 5 µM

Q: How did the IC50 turn out when COc1cc(C)c(S(=O)(=O)N(Cc2ccc(-c3cc4ccccc4o3)cc2)C(Cc2ccccc2)C(=O)O)c(C)c1C (stereo in doubt) [compound #6, (2s)-2-[(4-Benzofuran-2-yl-benzyl)-(4-methoxy-2,3,6-trimethyl-benzenesulfonyl)-amino]-3-phenyl-propionic acid] was run?
A: < 5 µM

Q: How did the IC50 turn out when C=CCN(C(=O)c1ccc(Cl)cc1I)C(Cc1ccccc1)C(=O)O (stereo not drawn) [Compound #27, 2-[Allyl-(4-chloro-2-iodo-benzoyl)-amino]-3-phenyl-propionic acid] was run?
A: 5 to 20 µM

Q: For O=C(O)CC(c1cccs1)N(Cc1ccc(-c2cccs2)cc1)C(=O)Nc1cc(Cl)nc(Cl)c1 (stereo not drawn) [compound #1, 3-[3-(2,6-Dichloro-pyridin-4-yl)-1-(4-thiophen-2-yl-benzyl)-ureido]-3-thiophen-2-yl-propionic acid], which IC50 is on record?
A: 5 to 20 µM

Q: How did the IC50 turn out when O=C(O)[C@H](Cc1ccccc1)N(Cc1ccc(-c2nccs2)cc1)C(=O)c1ccc(Cl)cc1Cl [compound #2, (2s)-2-[(2,4-Dichloro-benzoyl)-(4-thiazol-2-yl-benzyl)-amino]-3-phenyl-propionic acid] was run?
A: < 5 µM

Q: How did the IC50 turn out when O=C(O)[C@H](Cc1ccccc1)N(Cc1ccc(Br)cc1)C(=O)c1ccc(Cl)cc1Cl [compound #3, (2s)-2-[(4-Bromo-benzyl)-(2,4-dichloro-benzoyl)-amino]-3-phenyl-propionic acid] was run?
A: < 5 µM

Q: For COc1cc(C)c(S(=O)(=O)N(Cc2ccc(-c3cc4ccccc4o3)cc2)[C@@H](Cc2ccccc2)C(=O)O)c(C)c1C [compound #5, (2s)-2-[(4-Benzofuran-2-yl-benzyl) -(4-methoxy-2,3,6-trimethyl-benzenesulfonyl)-amino]-3-phenyl-propionic acid], which IC50 is on record?
A: < 5 µM

Q: For COc1cc(C)c(S(=O)(=O)N(Cc2cccc(-c3cc4ccccc4o3)c2)[C@@H](Cc2ccccc2)C(=O)O)c(C)c1C [compound #7, (2s)-2-[(3-Benzofuran-2-yl-benzyl)-(4-methoxy-2,3,6-trimethyl-benzenesulfonyl)-amino]-3-phenyl-propionic acid], which IC50 is on record?
A: < 5 µM

Q: For CCOC(=O)CC(c1cccs1)N(Cc1ccc(I)cc1)S(=O)(=O)c1c(C)cc(OC)c(C)c1C (stereo not drawn) [compound #8, 3-[(4-Iodo-benzyl)-(4-methoxy-2,3,6-trimethyl-benzenesulfonyl)-amino]-3-thiophen-2-yl-propionic acid ethyl ester], which IC50 is on record?
A: 5 to 20 µM

Q: Which IC50 does the source give for O=C(O)[C@H](Cc1ccccc1)N(Cc1cccc(Br)c1)C(=O)c1ccccc1Cl [compound #10, (2s)-2-[(3-Bromo-benzyl)-(2-chloro-benzoyl)-amino]-3-phenyl-propionic acid] here?
A: > 20 µM

Q: Which IC50 does the source give for O=C(O)[C@H](Cc1ccccc1)N(Cc1cccc(-c2cc3ccccc3o2)c1)C(=O)c1ccc(Cl)cc1Cl [compound #11, (2s)-2-[(3-Benzofuran-2-yl-benzyl)-(2,4-dichloro-benzoyl)-amino]-3-phenyl-propionic acid] here?
A: 5 to 20 µM

Q: For O=C(O)[C@H](Cc1ccccc1)N(Cc1ccc(I)cc1)C(=O)c1ccc(Cl)cc1Cl [compound #12, (2s)-2-[(2,4-Dichloro-benzoyl)-(4-iodo-benzyl)-amino]-3-phenyl-propionic acid], which IC50 is on record?
A: 5 to 20 µM

Q: Which IC50 does the source give for COc1cc(C)c(S(=O)(=O)N(Cc2cccc(I)c2)[C@@H](Cc2ccccc2)C(=O)O)c(C)c1C [compound #13, (2s)-2-[(3-Iodo-benzyl)-(4-methoxy-2,3,6-trimethyl-benzenesulfonyl)-amino]-3-phenyl-propionic acid] here?
A: 5 to 20 µM

Q: COc1cc(C)c(S(=O)(=O)N(Cc2ccc(Br)cc2)[C@@H](Cc2ccccc2)C(=O)O)c(C)c1C [compound #14, (2s)-2-[(4-Bromo-benzyl)-(4-methoxy-2,3,6-trimethyl-benzenesulfonyl)-amino]-3-phenyl-propionic acid] was tested. Which IC50 did it give?
A: 5 to 20 µM

Q: With COc1cc(C)c(S(=O)(=O)N(Cc2ccc(I)cc2)[C@@H](Cc2ccccc2)C(=O)O)c(C)c1C [compound #16, (2s)-2-[(4-Iodo-benzyl)-(4-methoxy-2,3,6-trimethyl-benzenesulfonyl)-amino]-3-phenyl-propionic acid] as the compound, how does the IC50 read?
A: 5 to 20 µM

Q: COc1cc(C)c(S(=O)(=O)N(Cc2cccc(Br)c2)[C@@H](Cc2ccccc2)C(=O)O)c(C)c1C [compound #17, (2s)-2-[(3-Bromo-benzyl)-(4-methoxy-2,3,6-trimethyl-benzenesulfonyl)-amino]-3-phenyl-propionic acid] was tested. Which IC50 did it give?
A: 5 to 20 µM

Q: With COC(=O)c1ccc(-c2ccc(CN([C@@H](Cc3ccccc3)C(=O)O)S(=O)(=O)c3c(C)cc(OC)c(C)c3C)cc2)o1 [compound #18, (2s)-5-(4-{[(1s-1-Carboxy-2-phenyl-ethyl)-(4-methoxy-2,3,6-trimethyl-benzenesulfonyl)-amino]-methyl}-phenyl)-furan-2-carboxylic acid methyl ester] as the compound, how does the IC50 read?
A: > 20 µM

Q: With O=C(O)[C@H](Cc1ccccc1)N(Cc1cccc(Br)c1)C(=O)c1ccc(Cl)c(Cl)c1 [compound #19, (2s)-2-[(3-Bromo-benzyl)-(3,4-dichloro-benzoyl)-amino]-3-phenyl-propionic acid] as the compound, how does the IC50 read?
A: > 20 µM

Q: Which IC50 does the source give for O=C(O)[C@H](Cc1ccccc1)N(Cc1cccc(Br)c1)S(=O)(=O)c1ccc(Cl)cc1Cl [compound #20, (2s)-2-[(3-Bromo-benzyl)-(2,4-dichloro-benzenesulfonyl)-amino]-3-phenyl-propionic acid] here?
A: > 20 µM

Q: For O=C(O)[C@H](Cc1cn(Cc2ccccc2)cn1)N(Cc1cccc(Br)c1)C(=O)c1ccc(Cl)cc1Cl [compound #21, (2s)-3-(1-Benzyl-1h-imidazol-4-yl)-2-[(3-bromo-benzyl)-(2,4-dichloro-benzoyl)-amino]-propionic acid], which IC50 is on record?
A: 5 to 20 µM

Q: O=C(O)[C@H](Cc1ccccc1)N(Cc1cccc(Br)c1)C(=O)Cc1ccc(Cl)cc1Cl [compound #22, (2s)-2-{(3-Bromo-benzyl)-[(2,4-dichloro-phenyl)-acetyl]-amino}-3-phenyl-propionic acid] was tested. Which IC50 did it give?
A: 5 to 20 µM

Q: COC(=O)c1ccc(-c2ccc(CN([C@@H](Cc3ccccc3)C(=O)O)S(=O)(=O)c3c(C)cc(OC)c(C)c3C)cc2)s1 [compound #23, (2s)-5-(4-{[(1s-1-Carboxy-2-phenyl-ethyl)-(4-methoxy-2,3,6-trimethyl-benzenesulfonyl)-amino]-methyl}-phenyl)-thiophene-2-carboxylic acid methyl ester] was tested. Which IC50 did it give?
A: > 20 µM

Q: COc1cc(C)c(S(=O)(=O)N(Cc2ccccc2Br)[C@@H](Cc2ccccc2)C(=O)O)c(C)c1C [compound #24, (2s)-2-[(2-Bromo-benzyl)-(4-methoxy-2,3,6-trimethyl-benzenesulfonyl)-amino]-3-phenyl-propionic acid] was tested. Which IC50 did it give?
A: 5 to 20 µM

Q: How did the IC50 turn out when Cc1ccc(C(=O)N(Cc2cccc(Br)c2)[C@@H](Cc2ccccc2)C(=O)O)c(C)c1 [compound #28, (2s)-2-[(3-Bromo-benzyl)-(2,4-dimethyl-benzoyl)-amino]-3-phenyl-propionic acid] was run?
A: < 5 µM

Q: How did the IC50 turn out when Cc1ccc(C(=O)N(Cc2cccc(-c3cc4ccccc4o3)c2)[C@@H](Cc2ccccc2)C(=O)O)c(C)c1 [compound #31, (2s)-2-[(3-Benzofuran-2-yl-benzyl)-(2,4-dimethyl-benzoyl)-amino]-3-phenyl-propionic acid] was run?
A: < 5 µM
